Molecules are shown by their SMILES.

A word on the IC50: it is the point on the concentration scale where inhibition reaches its midpoint.

T1 sequence (P02607 2-151): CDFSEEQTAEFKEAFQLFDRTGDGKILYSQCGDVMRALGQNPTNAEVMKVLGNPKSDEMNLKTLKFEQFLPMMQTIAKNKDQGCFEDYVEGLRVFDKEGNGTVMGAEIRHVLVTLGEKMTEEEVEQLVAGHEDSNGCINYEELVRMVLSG
T1 sequence (P10587 84-789): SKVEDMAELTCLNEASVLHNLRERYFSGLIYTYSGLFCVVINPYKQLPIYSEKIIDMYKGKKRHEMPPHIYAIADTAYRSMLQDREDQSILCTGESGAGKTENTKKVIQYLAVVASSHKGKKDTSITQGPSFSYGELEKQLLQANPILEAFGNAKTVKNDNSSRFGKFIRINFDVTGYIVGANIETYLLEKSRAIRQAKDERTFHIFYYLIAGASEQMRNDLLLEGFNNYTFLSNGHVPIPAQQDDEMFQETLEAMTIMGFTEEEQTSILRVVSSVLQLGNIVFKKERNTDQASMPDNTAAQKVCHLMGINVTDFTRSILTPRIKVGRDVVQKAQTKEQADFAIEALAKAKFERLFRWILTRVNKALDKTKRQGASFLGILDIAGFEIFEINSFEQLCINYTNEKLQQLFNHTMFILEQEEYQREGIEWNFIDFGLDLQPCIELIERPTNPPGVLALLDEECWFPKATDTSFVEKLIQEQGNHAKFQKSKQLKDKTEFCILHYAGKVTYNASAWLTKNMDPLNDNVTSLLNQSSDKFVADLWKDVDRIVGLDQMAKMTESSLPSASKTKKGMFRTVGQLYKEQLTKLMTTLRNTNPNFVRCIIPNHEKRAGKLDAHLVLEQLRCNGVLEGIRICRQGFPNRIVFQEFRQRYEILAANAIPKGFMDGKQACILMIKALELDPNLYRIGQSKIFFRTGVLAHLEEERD

The experiment addresses T1, chicken gizzard smooth muscle myosin subfragment-1 chemically crosslinked to cardiac or skeletal actin (Gallus gallus, UniProt P10587).
T1 construct: chicken gizzard smooth muscle myosin subfragment-1; from tissue; host or cells: chicken gizzard
Nature of the experiment: Smooth muscle myosin ATPase dose response assay (pyruvate kinase/horseradish peroxidase/pyruvate oxidase-coupled, amplex red fluorescence). Type of experiment: biochemical. Conditions: read-out: IC50 Arithmetic Mean. The essentials: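 Lead-optimization format: ATPase coupled via pyruvate kinase, pyruvate oxidase and peroxidase, pH 7.00 at 22° C, with 0.15 mM ATP, 100 mM KCl, 2 mM MgCl2, 2 mM phosphate and 0.1 mM amplex red (final). Crosslinked S1 titrated empirically for set hydrolysis rate; fluorescence (ex 480/em 615 nm) dose curves fit 4-parameter for IC50.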
Regarding `Cn1cc(-c2nc(NCCc3cccc(F)c3)c(C(=O)NC[C@H]3CCCN3C(=O)CCCNC(=O)OC(C)(C)C)cc2F)cn1` [N-[((2R)-1-{4-[(tert-butoxy)carbonylamino]butanoyl}pyrrolidin-2-yl)methyl](5-fluoro-2-{[2-(3-fluorophenyl)ethyl]amino}-6-(1-methylpyrazol-4-yl)(3-pyridyl))carboxamide], the concentration for half-maximal inhibition (IC50) stood at 483 nM. With `C=Cc1ccccc1-c1ccc(C(=O)NCc2cccnc2)c(NCCc2ccccn2)n1` [{2-[(2-(2-pyridyl)ethyl)amino]-6-(2-vinylphenyl)(3-pyridyl)}-N-(3-pyridylmethyl)carboxamide], the IC50 is 5340 nM. In the case of `CN1CCC[C@@H]1CNC(=O)c1ccc(-c2ccccc2C#N)nc1NCCc1cccc(F)c1` [N-[((2R)-1-methylpyrrolidin-2-yl)methyl](6-(2-cyanophenyl)-2-{[2-(3-fluorophenyl)ethyl]amino}(3-pyridyl))carboxamide], the IC50 was 214 nM. The value for `Cn1cc(-c2nc(NCCc3cccc(F)c3)c(C(=O)NC[C@H]3CCC(=O)N3CCCN)cc2Cl)cn1` [N-{[(2R)-1-(3-aminopropyl)-5-oxopyrrolidin-2-yl]methyl}(5-chloro-2-{[2-(3-fluorophenyl)ethyl]amino}-6-(1-methylpyrazol-4-yl)(3-pyridyl))carboxamide] was 160 nM; that for `CS(=O)(=O)N1CCC[C@@H]1CNC(=O)c1ccc(-c2ccccc2C#N)nc1NCCc1cccc(F)c1` [N-{[(2R)-1-(methylsulfonyl)pyrrolidin-2-yl]methyl}(6-(2-cyanophenyl)-2-{[2-(3-fluorophenyl)ethyl]amino}(3-pyridyl))carboxamide] was 1450 nM; that for `CN1CCN(C(=O)CCN)[C@@H](CNC(=O)c2ccc(-c3ccccc3C#N)nc2NCCc2cccc(F)c2)C1` [N-{[(2S)-1-(3-aminopropanoyl)-4-methylpiperazin-2-yl]methyl}(6-(2-cyanophenyl)-2-{[2-(3-fluorophenyl)ethyl]amino}(3-pyridyl))carboxamide] was 2390 nM.

For the compound `O=C(NCc1cccnc1)c1ccc(-c2ccc(F)cc2Cl)nc1NCCc1cccc(F)c1` [(6-(2-chloro-4-fluorophenyl)-2-{[2-(3-fluorophenyl)ethyl]amino}(3-pyridyl))-N-(3-pyridylmethyl)carboxamide], the IC50 was 1380 nM.

Take `NC(=O)CNC(=O)c1ccc(-c2ccc(CO)s2)nc1NCCc1cccc(F)c1` [N-(carbamoylmethyl)(2-{[2-(3-fluorophenyl)ethyl]amino}-6-[5-(hydroxymethyl)(2-thienyl)](3-pyridyl))carboxamide]: the IC50 was 496 nM. Consider `N#Cc1ccccc1-c1ccc(C(=O)NC[C@H]2CCC(=O)N2CCCN)c(NCCc2cccc(F)c2)n1` [N-{[(2R)-1-(3-aminopropyl)-5-oxopyrrolidin-2-yl]methyl}(6-(2-cyanophenyl)-2-{[2-(3-fluorophenyl)ethyl]amino}(3-pyridyl))carboxamide], for which the IC50 worked out at 42 nM. The result for `N#Cc1ccccc1-c1ccc(C(=O)NC[C@@H]2CCC(=O)N2)c(NCCc2cccc(F)c2)n1` [N-[((2S)-5-oxopyrrolidin-2-yl)methyl](6-(2-cyanophenyl)-2-{[2-(3-fluorophenyl)ethyl]amino}(3-pyridyl))carboxamide] reads 133 nM. The result for `Cn1cc(-c2nc(NCCc3cccc(F)c3)c(C(=O)NC[C@H]3CCCN3C(=O)CCCNC(=O)OC(C)(C)C)cc2Cl)cn1` [N-[((2R)-1-{4-[(tert-butoxy)carbonylamino]butanoyl}pyrrolidin-2-yl)methyl](5-chloro-2-{[2-(3-fluorophenyl)ethyl]amino}-6-(1-methylpyrazol-4-yl)(3-pyridyl))carboxamide] reads 683 nM; that for `N#Cc1ccccc1-c1ccc(C(=O)NC[C@H]2CNCCN2)c(NCCc2cccc(F)c2)n1` [N-[((2R)piperazin-2-yl)methyl](6-(2-cyanophenyl)-2-{[2-(3-fluorophenyl)ethyl]amino}(3-pyridyl))carboxamide], 12200 nM. The value for `N#Cc1ccccc1-c1ccc(C(=O)NCc2cccnc2CCN)c(NCCc2cccc(F)c2)n1` [N-{[2-(2-aminoethyl)(3-pyridyl)]methyl}(6-(2-cyanophenyl)-2-{[2-(3-fluorophenyl)ethyl]amino}(3-pyridyl))carboxamide] was 6 nM; that for `COc1ccccc1CCNc1nc(-c2ccccc2)ccc1C(=O)NCc1cccnc1` [(2-{[2-(2-methoxyphenyl)ethyl]amino}-6-phenyl(3-pyridyl))-N-(3-pyridylmethyl)carboxamide] was 980 nM. `Cn1ccc(-c2ccc(C(=O)NCc3cccnc3CN)c(NCCc3cccc(F)c3)n2)n1` [N-{[2-(aminomethyl)(3-pyridyl)]methyl}(2-{[2-(3-fluorophenyl)ethyl]amino}-6-(1-methylpyrazol-3-yl)(3-pyridyl))carboxamide]: the IC50 was 32 nM. As to `N#Cc1ccccc1-c1ccc(C(=O)NCCc2cnccn2)c(NCCc2cccc(F)c2)n1` [(6-(2-cyanophenyl)-2-{[2-(3-fluorophenyl)ethyl]amino}(3-pyridyl))-N-(2-pyrazin-2-ylethyl)carboxamide], the IC50 amounted to 266 nM. In the case of `CN1CC(=O)N[C@@H](CNC(=O)c2ccc(-c3ccccc3C#N)nc2NCCc2cccc(F)c2)C1` (stereo in doubt) [(6-(2-cyanophenyl)-2-{[2-(3-fluorophenyl)ethyl]amino}(3-pyridyl))-N-[(4-methyl-6-oxopiperazin-2-yl)methyl]carboxamide], the IC50 worked out at 37 nM. The result for `N#Cc1ccccc1-c1ccc(C(=O)NC[C@H]2CCN2C(=O)[C@@H](N)CO)c(NCCc2cccc(F)c2)n1` [N-{[(2R)-1-((2S)-2-amino-3-hydroxypropanoyl)azetidin-2-yl]methyl}(6-(2-cyanophenyl)-2-{[2-(3-fluorophenyl)ethyl]amino}(3-pyridyl))carboxamide] reads 88 nM; that for `Cn1cc(-c2nc(NCCc3cccc(F)c3)c(C(=O)NC[C@H]3CCN3C(=O)COC(=O)CNC(=O)OC(C)(C)C)cc2F)cn1` [2-((2R)-2-{[(5-fluoro-2-{[2-(3-fluorophenyl)ethyl]amino}-6-(1-methylpyrazol-4-yl)(3-pyridyl))carbonylamino]methyl}azetidinyl)-2-oxoethyl 2-[(tert-butoxy)carbonylamino]acetate], 191 nM. The result for `O=C(NCc1cccnc1)c1ccc(-c2ccc(Cl)c(Cl)c2)nc1NCCc1ccccn1` [{6-(3,4-dichlorophenyl)-2-[(2-(2-pyridyl)ethyl)amino](3-pyridyl)}-N-(3-pyridylmethyl)carboxamide] reads 3370 nM; that for `Cn1cc(-c2nc(NCCc3cccc(F)c3)c(C(=O)NC[C@H]3CCCN3C(=O)OC(C)(C)C)cc2F)cn1` [tert-butyl (2R)-2-{[(5-fluoro-2-{[2-(3-fluorophenyl)ethyl]amino}-6-(1-methylpyrazol-4-yl)(3-pyridyl))carbonylamino]methyl}pyrrolidinecarboxylate], 1460 nM; that for `NCCn1nccc1CNC(=O)c1ccc(-c2cc[nH]n2)nc1NCCc1cccc(F)c1` [N-{[1-(2-aminoethyl)pyrazol-5-yl]methyl}(2-{[2-(3-fluorophenyl)ethyl]amino}-6-pyrazol-3-yl(3-pyridyl))carboxamide], 634 nM. In the case of `N#Cc1ccccc1-c1ccc(C(=O)NC(CCN)C(N)=O)c(NCCc2cccc(F)c2)n1` (centres unmarked) [N-(3-amino-1-carbamoylpropyl)(6-(2-cyanophenyl)-2-{[2-(3-fluorophenyl)ethyl]amino}(3-pyridyl))carboxamide], the IC50 was found to be 1910 nM.

The values above are taken from US7932270B2 (Cytokinetics, Inc., priority 2006, dated 2011).
